Measurements as given in patent US20060134630A1, “Method for screening for an antimicrobial polypeptide” (Novozymes A/S, priority 2002, published 2006).

How the values were obtained:
[1] = system: Fusarium longypes; assay: Growth inhibition of Fusarium longypes by AFP diffused into solid media (filter removed); format: cell-based; design: key: +: whether or not a clearing zone is present in the top-layer; −: whether or not a clearing zone is present in the top-layer; settings: Fusarium longypes top-layer, acetate filter removed, 0.1% arabinose, 3 days room temperature
Source text: The method used in this example is similar to the method described in example 14 with the difference that in this example the acetate filter containing the E.coli origami cells is removed from the arabinose plate before it is overlaid with the fungus Fusarium longypes which is used as an indicator strain.
Additionally, this example is very similar to example 4, with the exception that in the present example AFP is the antimicrobial polypeptide (instead of Plectasin in example 4) and Fusarium longypes is the indicator cells (instead of Bacillus subtilis in example 4). As described in example 14, E. coli origami cells were transformed with pHHA900-AFP and pHHA, respectively and cultured overnight at 37 degrees C on LB-agar plates containing tetracycline (tet), kanamycin (kan) and ampicillin (amp) to select for viable E.coli origami cells comprising said constructs. Two viable E.coli origami colonies containing each of the constructs were selected and used to inoculate a LB-agar plate with tet, kan and amp before culturing said plate for 3 days at 37 degrees C. A cellulose acetate filter was placed on top of the plate and the colonies were striped off with the filter. The filter was then placed on a new LB-agar plate containing 0.1% arabinose with the colonies facing up to induce expression of the AFP. The filter-agar, 0.1% arabinose plate was incubated overnight at 37 degrees C. […]

[2] = system: Fusarium longypes; assay: Growth inhibition of Fusarium longypes by AFP (filter-agar plate treated with chloroform); format: cell-based; design: key: +: whether or not a clearing zone is present in the top-layer; −: whether or not a clearing zone is present in the top-layer; settings: Fusarium longypes top-layer over origami colonies, 0.1% arabinose, 3 days room temperature
Source text: E. coli origami cells were transformed with pHHA900-AFP and pHHA, respectively and cultured overnight at 37 degrees C. on LB-agar plates containing tetracycline (tet), kanamycin (kan) and ampicillin (amp) to select for viable origami cells comprising said constructs. Two viable origami colonies containing each of the constructs were selected and used to inoculate 3 other LB-agar plates with tet, kan and amp before culturing said plates for 3 days at 37 degrees C. A cellulose acetate filter (Schleider & Schull) was placed on top of each of the plates and the colonies were striped off with the filters. The filters were then place on new LB-agar plates containing 0.1% arabinose with the colonies facing up to induce expression of the AFP. The filter-agar, 0.1% arabinose plates were incubated overnight at 37 degrees C. before treating them with chloroform as described in example 1. After this a top-layer of 6 ml agar comprising approximately […] Fusarium longypes were poured on top of the chloroform treated filter-agar plate. The plates with top-layer were then incubated for 3 days at room temperature. The pink color of the Fusarium longypes mycelium facilitated the detection of the clearing zones in the top layer. […]

Substance: pHHA900-AFP: antifungal protein derived from Aspergillus giganteus, expressed in the cytoplasm (ATYNGKCYKKDNICKYKAQSGKTAICKCYVKKCPRDGAKCEFDSYKGKCYC; UniProt P17737 44-94, looked up)
- Clearing zone +/− [1]: +
- Clearing zone +/−, Plate treated with chloroform [2]: +
